Values after ≈ are worked out from the molar mass of the structure shown.
Tests used:
Campylobacter sp. [1] = experiment: Antibacterial activity against Campylobacter sp. assessed as growth inhibition at 0.004 ug/ml by broth microdilution method; format: functional
Aeromonas sp. [2] = experiment: Antibacterial activity against Aeromonas sp. assessed as growth inhibition at 0.5 ug/ml by broth microdilution method; format: functional
Campylobacter jejuni = experiment: Antibacterial activity against Campylobacter jejuni assessed as percent susceptible isolates by broth microdilution method; format: functional; settings: pooled result: one value given for 2 cell lines, strains, targets or settings
Vibrio cholerae = experiment: Antibacterial activity against Vibrio cholerae by broth microdilution method; format: functional
Escherichia coli [3] = experiment: Antibacterial activity against Escherichia coli assessed as growth inhibition at 0.008 ug/ml by broth microdilution method; format: functional
Escherichia coli [4] = experiment: Antibacterial activity against enterotoxigenic Escherichia coli assessed as percent resistant isolates by broth microdilution method; format: functional
[5] = Antibacterial activity against Salmonella enterica serovar Choleraesuis assessed as percent susceptible isolates by broth microdilution method; format: functional, Salmonella enterica subsp. enterica serovar Choleraesuis
Salmonella enteritidis = experiment: Antibacterial activity against Salmonella enterica serovar Enteritidis by broth microdilution method; format: functional, Salmonella enterica subsp. enterica serovar Enteritidis
Escherichia coli [6] = experiment: Antibacterial activity against Escherichia coli by broth microdilution method in presence of sulfamethoxazolee; format: functional
Vibrio fluvialis = experiment: Antibacterial activity against Vibrio fluvialis assessed as percent resistant isolates by broth microdilution method; format: functional
Campylobacter sp. [7] = experiment: Antibacterial activity against Campylobacter sp. assessed as growth inhibition at 0.5 ug/ml by broth microdilution method; format: functional
Yersinia enterocolitica = experiment: Antibacterial activity against Yersinia enterocolitica by broth microdilution method; format: functional
Escherichia coli [8] = experiment: Antibacterial activity against Escherichia coli assessed as growth inhibition at 1 ug/ml by broth microdilution method; format: functional
[9] = Antibacterial activity against Salmonella enterica serovar Choleraesuis by broth microdilution method; format: functional, Salmonella enterica subsp. enterica serovar Choleraesuis
Vibrio vulnificus [10] = experiment: Antibacterial activity against Vibrio vulnificus assessed as percent susceptible isolates by broth microdilution method; format: functional
Plesiomonas shigelloides [11] = experiment: Antibacterial activity against Plesiomonas shigelloides by broth microdilution method; format: functional
Vibrio alginolyticus = experiment: Antibacterial activity against Vibrio alginolyticus assessed as percent susceptible isolates by broth microdilution method; format: functional
Escherichia coli [12] = experiment: Antibacterial activity against Escherichia coli assessed as growth inhibition at 0.25 ug/ml by broth microdilution method; format: functional
Aeromonas hydrophila [13] = experiment: Antibacterial activity against Aeromonas hydrophila by broth microdilution method; format: functional
Escherichia coli [14] = experiment: Antibacterial activity against blood-borne Escherichia coli assessed as percent resistant isolates by broth microdilution method; format: functional
[15] = system: Yersinia pseudotuberculosis; experiment: Antibacterial activity against Yersinia pseudotuberculosis by broth microdilution method; format: functional
Salmonella sp. [16] = experiment: Antibacterial activity against Salmonella sp. assessed as growth inhibition at 0.004 ug/ml by broth microdilution method; format: functional
Aeromonas veronii = experiment: Antibacterial activity against Aeromonas veronii by broth microdilution method; format: functional
Plesiomonas shigelloides [17] = experiment: Antibacterial activity against Plesiomonas shigelloides assessed as growth inhibition at 0.008 ug/ml by broth microdilution method; format: functional
Shigella sp. [18] = experiment: Antibacterial activity against Shigella sp. assessed as growth inhibition at 0.004 ug/ml by broth microdilution method; format: functional
Escherichia coli [19] = experiment: Antibacterial activity against blood-borne Escherichia coli assessed as percent susceptible isolates by broth microdilution method; format: functional
Plesiomonas shigelloides [20] = experiment: Antibacterial activity against Plesiomonas shigelloides assessed as growth inhibition at 0.004 ug/ml by broth microdilution method; format: functional
Campylobacter sp. [21] = experiment: Antibacterial activity against Campylobacter sp. assessed as growth inhibition at 1 ug/ml by broth microdilution method; format: functional
Aeromonas sobria = experiment: Antibacterial activity against Aeromonas sobria by broth microdilution method; format: functional
Aeromonas sp. [22] = experiment: Antibacterial activity against Aeromonas sp. assessed as growth inhibition at 0.06 ug/ml by broth microdilution method; format: functional
Escherichia coli [23] = experiment: Antibacterial activity against Escherichia coli assessed as percent susceptible isolates by broth microdilution method; format: functional
Escherichia coli [24] = experiment: Antibacterial activity against Escherichia coli assessed as growth inhibition at 0.5 ug/ml by broth microdilution method; format: functional
Salmonella sp. [25] = experiment: Antibacterial activity against Salmonella sp. assessed as growth inhibition at 0.016 ug/ml by broth microdilution method; format: functional
Campylobacter sp. [26] = experiment: Antibacterial activity against Campylobacter sp. assessed as growth inhibition at 0.016 ug/ml by broth microdilution method; format: functional
Salmonella sp. [27] = experiment: Antibacterial activity against Salmonella sp. assessed as growth inhibition at 0.12 ug/ml by broth microdilution method; format: functional
Escherichia coli [28] = experiment: Antibacterial activity against enteroaggregative Escherichia coli assessed as percent resistant isolates by broth microdilution method; format: functional
Vibrio sp. [29] = experiment: Antibacterial activity against Vibrio sp. by broth microdilution method; format: functional
Campylobacter sp. [30] = experiment: Antibacterial activity against Campylobacter sp. assessed as growth inhibition at =>4 ug/ml by broth microdilution method; format: functional
Yersinia sp. = experiment: Antibacterial activity against Yersinia sp. assessed as growth inhibition at 0.03 ug/ml by broth microdilution method; format: functional; settings: Yersinia sp. (in: enterobacteria)
Shigella sonnei = experiment: Antibacterial activity against Shigella sonnei assessed as percent resistant isolates by broth microdilution method; format: functional; settings: pooled result: one value given for 4 cell lines, strains, targets or settings
Vibrio parahaemolyticus = experiment: Antibacterial activity against Vibrio parahaemolyticus by broth microdilution method; format: functional
Escherichia coli [31] = experiment: Antibacterial activity against Escherichia coli assessed as growth inhibition at =>4 ug/ml by broth microdilution method; format: functional
Plesiomonas shigelloides [32] = experiment: Antibacterial activity against Plesiomonas shigelloides assessed as percent resistant isolates by broth microdilution method; format: functional
Vibrio sp. [33] = experiment: Antibacterial activity against Vibrio sp. assessed as percent susceptible isolates by broth microdilution method; format: functional
Escherichia coli [34] = experiment: Antibacterial activity against Escherichia coli assessed as growth inhibition at 0.016 ug/ml by broth microdilution method; format: functional
Aeromonas sp. [35] = experiment: Antibacterial activity against Aeromonas sp. assessed as growth inhibition at 2 ug/ml by broth microdilution method; format: functional
Salmonella typhi = experiment: Antibacterial activity against Salmonella enterica serovar Typhi assessed as percent susceptible isolates by broth microdilution method; format: functional, Salmonella enterica subsp. enterica serovar Typhi
Shigella sp. [36] = experiment: Antibacterial activity against Shigella sp. assessed as growth inhibition at 0.016 ug/ml by broth microdilution method; format: functional
Plesiomonas shigelloides [37] = experiment: Antibacterial activity against Plesiomonas shigelloides assessed as percent susceptible isolates by broth microdilution method; format: functional
Aeromonas hydrophila [38] = experiment: Antibacterial activity against Aeromonas hydrophila assessed as percent resistant isolates by broth microdilution method; format: functional
Vibrio vulnificus [39] = experiment: Antibacterial activity against Vibrio vulnificus assessed as percent resistant isolates by broth microdilution method; format: functional
Vibrio sp. [40] = experiment: Antibacterial activity against Vibrio sp. assessed as growth inhibition at 0.008 ug/ml by broth microdilution method; format: functional

Work on `CC1Sc2c(C(=O)O)c(=O)c3cc(F)c(N4CCNCC4)cc3n21` (stereo not given) [ULIFLOXACIN] yielded an inhibition at 0.004 µg/mL (Campylobacter sp. [1]) of 0%, an inhibition at 0.5 µg/mL (Aeromonas sp. [2]) of 98% and an Activity (Campylobacter jejuni) of 84.4%. It also gave an MIC50 (Vibrio cholerae) of 0.016 µg/mL (≈ 0.0458 µM), an MIC90 (Vibrio cholerae) of 0.03 µg/mL (≈ 0.0859 µM) and an inhibition at 0.008 µg/mL (Escherichia coli [3]) of 93%. It also gave an Activity (Escherichia coli [4]) of 0%, an Activity [5] of 100% and an MIC50 (Salmonella enteritidis) of 0.008 µg/mL (≈ 0.0229 µM). For the same compound, the MIC90 (Salmonella enteritidis) was 0.03 µg/mL (≈ 0.0859 µM), the Activity (Escherichia coli [6]) was 4.8% and the Activity (Vibrio fluvialis) was 0%. For the same compound, the inhibition at 0.5 µg/mL (Campylobacter sp. [7]) was 83%, the MIC (Yersinia enterocolitica) was 0.008 µg/mL (≈ 0.0229 µM) and the MIC50 (Yersinia enterocolitica) was 0.008 µg/mL (≈ 0.0229 µM). It also gave an MIC90 (Yersinia enterocolitica) of 0.016 µg/mL (≈ 0.0458 µM), an inhibition at 1 µg/mL (Escherichia coli [8]) of 97% and an MIC50 [9] of 0.008 µg/mL (≈ 0.0229 µM). The MIC90 [9] was 0.03 µg/mL (≈ 0.0859 µM), the Activity (Vibrio vulnificus [10]) was 100% and the MIC (Plesiomonas shigelloides [11]) was 0.004 µg/mL (≈ 0.0114 µM). For the same compound, the MIC50 (Plesiomonas shigelloides [11]) was 0.004 µg/mL (≈ 0.0114 µM), the Activity (Vibrio alginolyticus) was 100% and the inhibition at 0.25 µg/mL (Escherichia coli [12]) was 97%. It also gave an MIC50 (Aeromonas hydrophila [13]) of 0.004 µg/mL (≈ 0.0114 µM), an MIC90 (Aeromonas hydrophila [13]) of 0.06 µg/mL (≈ 0.172 µM) and an Activity (Escherichia coli [14]) of 10%. For the same compound, the MIC [15] was 0.008 µg/mL (≈ 0.0229 µM), the MIC50 [15] was 0.008 µg/mL (≈ 0.0229 µM) and the MIC90 [15] was 0.016 µg/mL (≈ 0.0458 µM). It also gave an inhibition at 0.004 µg/mL (Salmonella sp. [16]) of 10%, an MIC50 (Aeromonas veronii) of 0.004 µg/mL (≈ 0.0114 µM) and an MIC90 (Aeromonas veronii) of 0.06 µg/mL (≈ 0.172 µM). The inhibition at 0.008 µg/mL (Plesiomonas shigelloides [17]) was 100%, the inhibition at 0.004 µg/mL (Shigella sp. [18]) was 62% and the Activity (Escherichia coli [19]) was 90%. It also gave an inhibition at 0.004 µg/mL (Plesiomonas shigelloides [20]) of 75%, an inhibition at 1 µg/mL (Campylobacter sp. [21]) of 84% and an MIC50 (Aeromonas sobria) of 0.004 µg/mL (≈ 0.0114 µM). It also gave an MIC90 (Aeromonas sobria) of 0.06 µg/mL (≈ 0.172 µM), an inhibition at 0.06 µg/mL (Aeromonas sp. [22]) of 92% and an Activity (Escherichia coli [23]) of 97%. It also gave an inhibition at 0.5 µg/mL (Escherichia coli [24]) of 97%, an inhibition at 0.016 µg/mL (Salmonella sp. [25]) of 85% and an inhibition at 0.016 µg/mL (Campylobacter sp. [26]) of 8%. The inhibition at 0.12 µg/mL (Salmonella sp. [27]) was 100%, the Activity (Escherichia coli [28]) was 0% and the MIC50 (Vibrio sp. [29]) was 0.016 µg/mL (≈ 0.0458 µM). The MIC90 (Vibrio sp. [29]) was 0.03 µg/mL (≈ 0.0859 µM), the “inhibition (INH)” value (Campylobacter sp. [30]) was 100% and the inhibition at 0.03 µg/mL (Yersinia sp.) was 93%. The Activity (Shigella sonnei) was 0%, the MIC50 (Vibrio parahaemolyticus) was 0.016 µg/mL (≈ 0.0458 µM) and the MIC90 (Vibrio parahaemolyticus) was 0.03 µg/mL (≈ 0.0859 µM). For the same compound, the “inhibition (INH)” value (Escherichia coli [31]) was 100%, the Activity (Plesiomonas shigelloides [32]) was 0% and the Activity (Vibrio sp. [33]) was 100%. It also gave an inhibition at 0.016 µg/mL (Escherichia coli [34]) of 94%, an inhibition at 2 µg/mL (Aeromonas sp. [35]) of 98% and an Activity (Salmonella typhi) of 100%. For the same compound, the inhibition at 0.016 µg/mL (Shigella sp. [36]) was 96%, the Activity (Plesiomonas shigelloides [37]) was 100% and the Activity (Aeromonas hydrophila [38]) was 2%. For the same compound, the Activity (Vibrio vulnificus [39]) was 0% and the inhibition at 0.008 µg/mL (Vibrio sp. [40]) was 40%.
